Patent US20200263231A1, “Fluorogenic dyes for high sensitivity DNA detection” (LIFE TECHNOLOGIES CORPORATION, priority 2016, published 2020)

Columns and labels:
[1] = test system: calf thymus DNA; test: Fluorescence emission and enhancement of compounds bound to calf thymus DNA; assay type: binding; settings: 0.8 μM compound with 500 ng/ml calf thymus DNA in TE buffer; for Emission Max: excited at 488 nm; for Fluorescence Enhancement: emission area 500-715 nm compared to compound 1, defined as 1000-fold
Method: Compounds 1-65 were prepared and their fluorescence absorption and emission characteristics were measured. Intrinsic fluorescence of the compounds only (without DNA) was negligible. Emission spectra for the compounds bound to dsDNA were obtained by incubating 0.8 μM compound with 500 ng/ml calf thymus DNA in TE buffer (10 mM Tris-HCl, pH 7.5, 1 mM EDTA) in a final volume of 3 ml. Measurements were made using PerkinElmer LS 55 (F-11) Fluorescence spectrometer. Samples were excited at 488 nm and fluorescence emission was measured with emission slit widths of 2.5 nm. Absorption maxima were determined according to standard techniques.
Fluorescence enhancement measurements of the compounds were obtained by incubating 0.8 μM compound with 500 ng/ml calf thymus DNA with compounds at a final concentration of 0.8 μM in TE buffer. Compound 1 was used as an internal standard to control for variability (e.g., in excitation light intensity). The area-under-curve of fluorescence emission spectra from 500 nm to 715 nm was calculated, and compared to that of compound 1, which was defined as having 1000-fold fluorescence enhancement relative to fluorescence of the compound alone.

[2] = UV/VIS absorption spectra; assay type: physicochemical; settings: 10 μM compound in 50 mM potassium phosphate buffer (pH 7.0)
Method: The UV/VIS absorption spectra were obtained with 10 μM compound solution in 50 mM potassium phosphate buffer (pH 7.0) in a final volume of 3 mL. Measurements were carried out using a Lambda 245 spectrophotometer from Perkin Elmer.

| Compound | Emission Max [1] [nm] | Fluorescence Enhancement [1] [fold] | Absorbance Max [2] [nm] |
| --- | --- | --- | --- |
| CCCN(CCCN(C)C)C1=C/C(=C/c2sc3ccccc3[n+]2C)c2ccccc2N1c1ccccc1 [Compound 1, reference compound] | 523 | 1000 | 500 |
| CCCN(CCC[N+](C)(C)CC)C1=C/C(=C/c2sc3ccccc3[n+]2C)c2ccccc2N1c1ccccc1.[Cl-].[I-] [Compound 3] | 524 | 997 | 501 |
| CCCN(CCC[N+](C)(C)CCC)C1=C/C(=C/c2sc3ccccc3[n+]2C)c2ccccc2N1c1ccccc1.[I-].[I-] [Compound 4] | 524 | 925 | 501 |
| CCCN(CCC[N+](C)(C)CCO)C1=C/C(=C/c2sc3ccccc3[n+]2C)c2ccccc2N1c1ccccc1.[I-].[I-] [Compound 5] | 523 | 954 | 501 |
| CCCN(CCC[N+](C)(C)Cc1ccccc1)C1=C/C(=C\c2sc3ccccc3[n+]2C)c2ccccc2N1c1ccccc1.[Br-].[Cl-] [Compound 6] | 523 | 979 | 502 |
| CCCN(CCC[N+](C)(C)Cc1cccc(OC)c1)C1=C/C(=C/c2sc3ccccc3[n+]2C)c2ccccc2N1c1ccccc1.[Br-].[Cl-] [Compound 7] | 522 | 978 | 502 |
| CCCCN(CCCN(C)C)C1=C/C(=C/c2sc3ccccc3[n+]2C)c2ccccc2N1c1ccccc1.[I-] [Compound 8] | 525 | 946 | 495 |
| CCCCN(CCC[N+](C)(C)C)C1=C/C(=C/c2sc3ccccc3[n+]2C)c2ccccc2N1c1ccccc1.[I-].[I-] [Compound 9] | 525 | 908 | 496 |
| CCCCN(CCC[N+](C)(C)CC)C1=C/C(=C/c2sc3ccccc3[n+]2C)c2ccccc2N1c1ccccc1.[I-].[I-] [Compound 10] | 526 | 926 | 496 |
| CCCCN(CCC[N+](C)(C)CCC)C1=C/C(=C/c2sc3ccccc3[n+]2C)c2ccccc2N1c1ccccc1.[I-].[I-] [Compound 11] | 524 | 903 | 496 |
| CCCCN(CCC[N+](C)(C)CCO)C1=C/C(=C/c2sc3ccccc3[n+]2C)c2ccccc2N1c1ccccc1.[I-].[I-] [Compound 12] | 525 | 937 | 496 |
| CCCCN(CCC[N+](C)(C)Cc1ccccc1)C1=C/C(=C/c2sc3ccccc3[n+]2C)c2ccccc2N1c1ccccc1.[Br-].[I-] [Compound 13] | 523 | 922 | 496 |
| CCCCN(CCC[N+](C)(C)Cc1cccc(OC)c1)C1=C/C(=C/c2sc3ccccc3[n+]2C)c2ccccc2N1c1ccccc1.[Br-].[I-] [Compound 14] | 526 | 907 | 497 |
| CCN(CCCN(C)C)C1=C/C(=C/c2sc3ccccc3[n+]2C)c2ccccc2N1c1ccccc1.[I-] [Compound 15] | 524 | 864 | 495 |
| CCN(CCC[N+](C)(C)C)C1=C/C(=C/c2sc3ccccc3[n+]2C)c2ccccc2N1c1ccccc1.[I-].[I-] [Compound 16] | 523 | 863 | 496 |
| CCN(CCC[N+](C)(C)CC)C1=C/C(=C/c2sc3ccccc3[n+]2C)c2ccccc2N1c1ccccc1.[I-].[I-] [Compound 17] | 523 | 865 | 496 |

| Compound | Emission Max [1] [nm] | Fluorescence Enhancement [1] [fold] | Absorbance Max [2] [nm] |
| --- | --- | --- | --- |
| CCN(CCC[N+](C)(C)CCO)C1=C/C(=C/c2sc3ccccc3[n+]2C)c2ccccc2N1c1ccccc1.[I-].[I-] [Compound 18] | 524 | 882 | 496 |
| CCN(CCC[N+](C)(C)Cc1ccccc1)C1=C/C(=C/c2sc3ccccc3[n+]2C)c2ccccc2N1c1ccccc1.[Br-].[I-] [Compound 19] | 524 | 884 | 497 |
| CCN(CCC[N+](C)(C)Cc1cccc(OC)c1)C1=C/C(=C/c2sc3ccccc3[n+]2C)c2ccccc2N1c1ccccc1.[Br-].[I-] [Compound 20] | 523 | 871 | 497 |
| CN(C)CCCN(C)C1=C/C(=C/c2sc3ccccc3[n+]2C)c2ccccc2N1c1ccccc1.[I-] [Compound 21] | 522 | 639 | 491 |
| CN(CCC[N+](C)(C)C)C1=C/C(=C/c2sc3ccccc3[n+]2C)c2ccccc2N1c1ccccc1.[I-].[I-] [Compound 22] | 520 | 639 | 497 |
| CC[N+](C)(C)CCCN(C)C1=C/C(=C/c2sc3ccccc3[n+]2C)c2ccccc2N1c1ccccc1.[I-].[I-] [Compound 23] | 524 | 622 | 498 |
| CCC[N+](C)(C)CCCN(C)C1=C/C(=C/c2sc3ccccc3[n+]2C)c2ccccc2N1c1ccccc1.[I-].[I-] [Compound 24] | 522 | 630 | 497 |
| CN(CCC[N+](C)(C)CCO)C1=C/C(=C/c2sc3ccccc3[n+]2C)c2ccccc2N1c1ccccc1.[I-].[I-] [Compound 25] | 523 | 640 | 497 |
| CN(CCC[N+](C)(C)Cc1ccccc1)C1=C/C(=C/c2sc3ccccc3[n+]2C)c2ccccc2N1c1ccccc1.[I-].[I-] [Compound 26] | 521 | 653 | 498 |
| COc1cccc(C[N+](C)(C)CCCN(C)C2=C/C(=C/c3sc4ccccc4[n+]3C)c3ccccc3N2c2ccccc2)c1.[Br-].[I-] [Compound 27] | 521 | 668 | 498 |
| CCN(CCN(C)C)C1=C/C(=C/c2sc3ccccc3[n+]2C)c2ccccc2N1c1ccccc1.[Cl-] [Compound 28] | 525 | 672 | 504 |
| CCN(CC[N+](C)(C)C)C1=C/C(=C/c2sc3ccccc3[n+]2C)c2ccccc2N1c1ccccc1.[Cl-].[I-] [Compound 29] | 528 | 648 | 506 |
| CCN(CC[N+](C)(C)CC)C1=C/C(=C/c2sc3ccccc3[n+]2C)c2ccccc2N1c1ccccc1.[Cl-].[I-] [Compound 30] | 526 | 638 | 506 |
| CCC[N+](C)(C)CCN(CC)C1=C/C(=C/c2sc3ccccc3[n+]2C)c2ccccc2N1c1ccccc1.[I-].[I-] [Compound 31] | 527 | 642 | 506 |
| CCN(CC[N+](C)(C)Cc1ccccc1)C1=C/C(=C/c2sc3ccccc3[n+]2C)c2ccccc2N1c1ccccc1.[Br-].[I-] [Compound 32] | 527 | 672 | 507 |
| CCN(CC[N+](C)(C)Cc1cccc(OC)c1)C1=C/C(=C/c2sc3ccccc3[n+]2C)c2ccccc2N1c1ccccc1.[Br-].[I-] [Compound 33] | 526 | 652 | 507 |
